Measurements taken from US9993494B2, “Compositions and methods for treating fibrotic disease” (eFFECTOR Therapeutics, Inc., priority 2014, dated 2018).

System: normal human lung fibroblasts
Assay: Ribosomal profiling: translational efficiency in TGFβ-treated fibroblasts
Assay type: cell-based
Conditions: TGFβ-treated fibroblasts
Method in brief: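 Genome-wide RPF and total RNA libraries (ARTseq, RNA-Seq) were made from lysates of cycloheximide-treated, PBS-washed cells. After trimming and human-genome mapping, per-gene coding-region counts were compared between RPF and RNA for translational efficiency. Genes scoring low in either fraction were dropped.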

Cc1cc(C2CCCCC2)n(O)c(=O)c1.NCCO [CPX, ciclopirox oloamine]
effect in renormalizing the translational profile of the gene (gene RPS6 (ENSG00000137154)): − (− = <0.9) | effect in renormalizing the translational profile of the gene (gene RPS6KA5 (ENSG00000100784)): − (− = <0.9) | effect in renormalizing the translational profile of the gene (gene RPS7 (ENSG00000171863)): − (− = <0.9) | effect in renormalizing the translational profile of the gene (gene RPS8 (ENSG00000142937)): − (− = <0.9) | effect in renormalizing the translational profile of the gene (gene RPS9 (ENSG00000170889)): − (− = <0.9) | effect in renormalizing the translational profile of the gene (gene RPS10 (ENSG00000124614)): − (− = <0.9) | effect in renormalizing the translational profile of the gene (gene RPS11 (ENSG00000142534)): − (− = <0.9) | effect in renormalizing the translational profile of the gene (gene RPS12 (ENSG00000112306)): − (− = <0.9) | effect in renormalizing the translational profile of the gene (gene RPS13 (ENSG00000110700)): − (− = <0.9) | effect in renormalizing the translational profile of the gene (gene RPS14 (ENSG00000164587)): − (− = <0.9) | effect in renormalizing the translational profile of the gene (gene RPS15 (ENSG00000115268)): − (− = <0.9) | effect in renormalizing the translational profile of the gene (gene RPS15A (ENSG00000134419)): − (− = <0.9) | effect in renormalizing the translational profile of the gene (gene RPS16 (ENSG00000105193)): − (− = <0.9) | effect in renormalizing the translational profile of the gene (gene RPS18 (ENSG00000231500)): − (− = <0.9) | effect in renormalizing the translational profile of the gene (gene RPS19 (ENSG00000105372)): − (− = <0.9) | effect in renormalizing the translational profile of the gene (gene RPS20 (ENSG00000008988)): − (− = <0.9) | effect in renormalizing the translational profile of the gene (gene RPS21 (ENSG00000171858)): − (− = <0.9) | effect in renormalizing the translational profile of the gene (gene RPS23 (ENSG00000186468)): − (− = <0.9) | effect in renormalizing the translational profile of the gene (gene RPS24 (ENSG00000138326)): − (− = <0.9) | effect in renormalizing the translational profile of the gene (gene RPS25 (ENSG00000118181)): − (− = <0.9) | effect in renormalizing the translational profile of the gene (gene RPS26 (ENSG00000197728)): − (− = <0.9) | effect in renormalizing the translational profile of the gene (gene RPS27 (ENSG00000177954)): − (− = <0.9) | effect in renormalizing the translational profile of the gene (gene RPS27A (ENSG00000143947)): − (− = <0.9) | effect in renormalizing the translational profile of the gene (gene RPS28 (ENSG00000233927)): + (+ = 0.9 to 1.5) | effect in renormalizing the translational profile of the gene (gene RPS29 (ENSG00000213741)): − (− = <0.9) | effect in renormalizing the translational profile of the gene (gene RPSA (ENSG00000168028)): − (− = <0.9) | effect in renormalizing the translational profile of the gene (gene RTN2 (ENSG00000125744)): − (− = <0.9) | effect in renormalizing the translational profile of the gene (gene SEMA3A (ENSG00000075213)): − (− = <0.9) | effect in renormalizing the translational profile of the gene (gene SGIP1 (ENSG00000118473)): − (− = <0.9) | effect in renormalizing the translational profile of the gene (gene SH3BGR (ENSG00000185437)): − (− = <0.9) | effect in renormalizing the translational profile of the gene (gene SHC3 (ENSG00000148082)): +++ (+++ = >2.0) | effect in renormalizing the translational profile of the gene (gene SLC2A12 (ENSG00000146411)): − (− = <0.9) | effect in renormalizing the translational profile of the gene (gene SLC7A7 (ENSG00000155465)): − (− = <0.9) | effect in renormalizing the translational profile of the gene (gene SLC15A3 (ENSG00000110446)): − (− = <0.9) | effect in renormalizing the translational profile of the gene (gene SLC25A6 (ENSG00000169100)): − (− = <0.9) | effect in renormalizing the translational profile of the gene (gene SLC40A1 (ENSG00000138449)): ++ (++ = 1.5 to 2.0) | effect in renormalizing the translational profile of the gene (gene SMO (ENSG00000128602)): − (− = <0.9) | effect in renormalizing the translational profile of the gene (gene SNRPA (ENSG00000077312)): − (− = <0.9) | effect in renormalizing the translational profile of the gene (gene SOX5 (ENSG00000134532)): − (− = <0.9) | effect in renormalizing the translational profile of the gene (gene SOX6 (ENSG00000110693)): − (− = <0.9) | effect in renormalizing the translational profile of the gene (gene SPATA6 (ENSG00000132122)): − (− = <0.9) | effect in renormalizing the translational profile of the gene (gene STAMBPL1 (ENSG00000138134)): + (+ = 0.9 to 1.5) | effect in renormalizing the translational profile of the gene (gene STS (ENSG00000101846)): − (− = <0.9) | effect in renormalizing the translational profile of the gene (gene SYNE2 (ENSG00000054654)): − (− = <0.9) | effect in renormalizing the translational profile of the gene (gene TAF1D (ENSG00000166012)): − (− = <0.9) | effect in renormalizing the translational profile of the gene (gene TDG (ENSG00000139372)): − (− = <0.9) | effect in renormalizing the translational profile of the gene (gene TEN1 (ENSG00000257949)): − (− = <0.9) | effect in renormalizing the translational profile of the gene (gene TET2 (ENSG00000168769)): − (− = <0.9) | effect in renormalizing the translational profile of the gene (gene TET3 (ENSG00000187605)): − (− = <0.9) | effect in renormalizing the translational profile of the gene (gene TGFBI (ENSG00000120708)): − (− = <0.9) | effect in renormalizing the translational profile of the gene (gene THBS3 (ENSG00000169231)): − (− = <0.9) | effect in renormalizing the translational profile of the gene (gene THG1L (ENSG00000113272)): − (− = <0.9) | effect in renormalizing the translational profile of the gene (gene TIMM9 (ENSG00000100575)): − (− = <0.9) | effect in renormalizing the translational profile of the gene (gene TKT (ENSG00000163931)): − (− = <0.9) | effect in renormalizing the translational profile of the gene (gene TMTC1 (ENSG00000133687)): − (− = <0.9) | effect in renormalizing the translational profile of the gene (gene TOMM7 (ENSG00000196683)): + (+ = 0.9 to 1.5) | effect in renormalizing the translational profile of the gene (gene TOP2A (ENSG00000131747)): − (− = <0.9) | effect in renormalizing the translational profile of the gene (gene TPGS1 (ENSG00000141933)): − (− = <0.9) | effect in renormalizing the translational profile of the gene (gene TPM2 (ENSG00000198467)): − (− = <0.9) | effect in renormalizing the translational profile of the gene (gene TPT1 (ENSG00000133112)): − (− = <0.9) | effect in renormalizing the translational profile of the gene (gene TRERF1 (ENSG00000124496)): − (− = <0.9) | effect in renormalizing the translational profile of the gene (gene UBA52 (ENSG00000221983)): − (− = <0.9) | effect in renormalizing the translational profile of the gene (gene UQCRB (ENSG00000156467)): − (− = <0.9) | effect in renormalizing the translational profile of the gene (gene UTRN (ENSG00000152818)): − (− = <0.9) | effect in renormalizing the translational profile of the gene (gene VIM (ENSG00000026025)): − (− = <0.9) | effect in renormalizing the translational profile of the gene (gene ZNF581 (ENSG00000171425)): − (− = <0.9)
